Laboratory results: US9833490B1, “Drug combination for the treatment of infertility and its preparation methods and applications” (SICHUAN SHANZE BIOTECH.,LTD., priority 2017, dated 2017)

Biological target: xanthine oxidase (Homo sapiens, UniProt P47989)
Assay: Xanthine oxidase inhibitory activity
Assay type: biochemical
Conditions: relative to allopurinol

Sequence of xanthine oxidase (P47989 whole entry, species assumed): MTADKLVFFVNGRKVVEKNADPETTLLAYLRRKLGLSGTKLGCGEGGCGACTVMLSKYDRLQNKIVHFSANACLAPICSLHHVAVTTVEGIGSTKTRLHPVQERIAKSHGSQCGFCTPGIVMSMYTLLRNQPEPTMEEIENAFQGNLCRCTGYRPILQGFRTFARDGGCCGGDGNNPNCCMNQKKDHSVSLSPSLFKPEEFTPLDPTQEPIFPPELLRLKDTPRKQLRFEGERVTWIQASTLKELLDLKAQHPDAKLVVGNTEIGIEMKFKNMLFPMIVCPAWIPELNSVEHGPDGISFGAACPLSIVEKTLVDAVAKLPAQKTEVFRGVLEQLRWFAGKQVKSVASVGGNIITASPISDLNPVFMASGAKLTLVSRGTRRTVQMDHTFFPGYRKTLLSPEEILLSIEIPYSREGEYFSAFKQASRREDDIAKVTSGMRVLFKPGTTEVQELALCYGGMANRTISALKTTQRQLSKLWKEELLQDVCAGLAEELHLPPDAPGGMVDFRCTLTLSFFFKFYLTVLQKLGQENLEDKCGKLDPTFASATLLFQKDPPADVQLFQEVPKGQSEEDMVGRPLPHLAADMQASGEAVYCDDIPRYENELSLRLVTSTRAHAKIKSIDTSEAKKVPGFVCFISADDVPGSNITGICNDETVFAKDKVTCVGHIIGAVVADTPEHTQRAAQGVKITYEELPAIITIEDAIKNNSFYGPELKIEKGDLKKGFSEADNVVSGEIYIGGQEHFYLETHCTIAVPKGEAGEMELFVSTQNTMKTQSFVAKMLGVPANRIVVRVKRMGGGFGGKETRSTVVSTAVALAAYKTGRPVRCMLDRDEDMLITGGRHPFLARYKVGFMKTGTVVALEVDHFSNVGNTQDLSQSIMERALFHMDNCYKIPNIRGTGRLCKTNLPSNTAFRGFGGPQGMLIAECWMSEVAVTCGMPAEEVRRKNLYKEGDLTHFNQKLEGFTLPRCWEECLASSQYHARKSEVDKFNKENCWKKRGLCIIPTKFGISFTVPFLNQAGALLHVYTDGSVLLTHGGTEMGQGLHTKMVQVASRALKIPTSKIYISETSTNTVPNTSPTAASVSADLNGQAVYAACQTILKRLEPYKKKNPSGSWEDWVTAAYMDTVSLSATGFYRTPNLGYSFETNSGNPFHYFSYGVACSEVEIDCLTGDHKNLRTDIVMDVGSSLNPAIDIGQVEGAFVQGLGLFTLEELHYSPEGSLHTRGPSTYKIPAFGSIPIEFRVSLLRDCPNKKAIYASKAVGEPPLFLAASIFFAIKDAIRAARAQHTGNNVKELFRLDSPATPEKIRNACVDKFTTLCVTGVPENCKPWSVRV

xanthine oxidase inhibitory activity, fold higher than allopurinol	SMILES
63 fold	O=C(/C=C/c1ccc(O)c(O)c1)c1ccc(O)c(O)c1O [okanin, 3,4,2′,3′,4′-pentahydroxy trans-chalcone]
17 fold	O=c1c(O)c(-c2ccc(O)c(O)c2)oc2c(O)c(O)ccc12 [melanoxetin, 3,7,8,3′,4′-pentahydroxyflavone]
